Measurements reported in patent US20160310467A1, “ONDANSETRONE TO REVERSAL OF THE SOFT TISSUE ANESTHESIA” (priority 2015, published 2016).

Experiments:
[1] = spinal anesthesia with bupivacaine; cited from earlier work
[2] = cited from earlier work
[3] = reversal of the local anesthesia effect by applying ondansetrone to the same soft tissue area; type: in vivo; settings: ondansetrone applied to the same area where local anesthesia is applied; dose according to patient and to type and dosage of local anesthetic
From the text: Invention is about the reversal of the effect of the local anesthetic applied to the soft tissue, in a short time period by applying ondansetrone, which is a 5-hydroxytriptamine (5-HT3) antagonist, to the same area. And it is also about the removal of the problems encountered by local anesthesia.
Anesthesia implementations can be classified as local anesthesia, regional anesthesia and general anesthesia. Local anesthesia is the temporarily blockage of carrying the painful stimulations by nerve tracks. Only the surgery area is anesthetized with the local anesthesia. […] Local anesthesia effect can last from as few hours up to five hours. During that period, the problems that patient has to face because of being effected by local anesthesia are described in detail in the prior art section. The solution of these problems is reversal of the effect of the local anesthesia by the doctor in a short time after finishing the operation. Because of the effects of the local anesthetics can take hours to be removed by their selves. In the studies of mine about reversal of that local anesthesia effect, ondansetrone, which is a 5-hidroksitriptamin (5-HT3) antagonist, is implemented to the same area according to patient's situation (age, weight, sensitivity etc.) and to type and dosage of local anesthetic were local anesthesia is applied. […]

CN1C2CCCC1CC(NC(=O)c1nn(C)c3ccccc13)C2 (stereo not shown) [granisetron]
reversal of the sensorial block [1]: accelerates the reversal of the sensorial block

Cc1nccn1CC1CCc2c(c3ccccc3n2C)C1=O (stereo not shown) [ondansetrone]
regression of the sensorial block level ([2]; subarachnoid anesthesia by lidocaine): accelerates the regression of the sensorial block level
effect on sensorial block level ([2]; subarachnoid anesthesia by ropivacaine): no effect in sensorial block level
reversal of the effect of the local anesthetic [3]: antagonizes the effect of the local anesthetic in a short time (a few minutes)
